# According to patent US20250296942A1, “Phosphonate-Based Coordination Complexes and Methods of Preparation and Use Thereof” (University of Puerto Rico, priority 2021, published 2025):
# Experiments:
# [1] = tested on: normal osteoblast-like hFOB 1.19 cell line; assay: AlamarBlue cytotoxicity, ZOLE and nano-Ca@ZOLE, hFOB 1.19; format: cell-based, human; conditions: for IC50: Homo sapiens
# Experimental: (§1) Cell culture methods: The MDA-MB-231 cell line was cultured in DMEM, 1% Pen-Strep, and 10% FBS at 37° C. in 5% CO2. The hFOB 1.19 cell line was cultured in 1:1 DMEM:F-12, 0.3 mg/mL G418, and 10% FBS at 34° C. in 5% CO2. Cell passages were performed weekly at 80% of cell confluency, and media was exchanged twice a week.
# (§2) Cell treatments: Both cell lines were treated with ZOLE (control) and nano-Ca@ZOLE (experimental). First, to determine the half-maximal inhibitory concentration (IC50) two-fold serial dilutions of ZOLE (0-200 μM) were prepared. Both cell lines (MDA-MB-231 and hFOB 1.19) were seeded in 96 well plates at 2.5×10^5 cell/mL. The cells were incubated for 24 h at 37° C. (MDA-MB-231) and 34° C. (hFOB 1.19), respectively. After an initial incubation period, both cell lines were treated with 100 μL of the ZOLE solutions previously prepared, and incubation was performed for 24, 48, and 72 h at the respective incubation temperatures. For both cell lines, media (MDA-MB-231: DMEM, Pen-Strep and hFOB 1.19: DMEM, F-12, G418) were used with control groups. AlamarBlue® assay was utilized to determine cell proliferation; for this, 10% of AlamarBlue® solution in PBS was prepared. Finally, media was removed from the 96 well plates, 100 μL of 10% AlamarBlue® solution was added, and the cells were incubated for 4 h at the conditions previously set forth herein. After the AlamarBlue® assay, fluorescence (λexc=560 nm, m=590 nm) was evaluated employing an Infinite M200 PRO Tecan Microplate Reader. Live cells were assessed comparing viability of the control group (100%) with cells treated with the ZOLE solutions. The nonlinear regression method using Graph Pad Prism 8 was applied to fit the dose-response curves (% cell live vs concentration) and determined the IC50 values for ZOLE.
# (§3) The percentage of relative cell live (% RCL) for ZOLE (control) and nano-Ca@ZOLE (experimental) were investigated at selected concentrations (1.9, 3.8, 7.5, and 15 μM) in both cell lines. Treatments at these concentrations were carried out at 24, 48, and 72 h for ZOLE and nano-Ca@ZOLE. The cell seeding and AlamarBlue® assay were completed as described above for IC50 determination in both cell lines. Graph Pad Prism 8 was utilized to plot the % RCL found at concentrations of 1.9, 3.8, 7.5, and 15 μM after 24, 48, and 72 h of treatment. All experiments were performed in triplicates and the data was statistically treated using mean, standard deviation, and the coefficient of variation percentage (% CV).
# In this Example, the human breast cancer MDA-MB-231 and the osteoblast-like hFOB 1.19 cell lines were selected to assess cytotoxicity effects of nano-Ca@ZOLE nanocrystals. […]
# [2] = tested on: human breast cancer MDA-MB-231 cell line; assay: AlamarBlue cytotoxicity, ZOLE and nano-Ca@ZOLE, MDA-MB-231; format: cell-based; conditions: for IC50: Homo sapiens
# Experimental: as §1, §2, §3
# In this Example, the human breast cancer MDA-MB-231 and the osteoblast-like hFOB 1.19 cell lines were selected to assess cytotoxicity effects of nano-Ca@ZOLE nanocrystals. […] While, the immortalized human fetal hFOB 1.19 cell line is a homogeneous model that allows the study of osteoblast differentiation, these cells were employed to imitate the normal human bone microenvironment. To determine the IC50 values against MDA-MB-231 and hFOB 1.19 cell lines, concentrations of 0-200 μM of ZOLE were employed.
# [3] = Hydroxyapatite (HA) binding assay of ZOLE and nano-Ca@ZOLE
# Experimental: Hydroxyapatite (HA) binding assay: For the binding assay of nano-Ca@ZOLE, 20 mg of hydroxyapatite (HA) were exposed to 3 mL of a nano-Ca@ZOLE in PBS solution (0.5 mg/mL), for 0-11 days at 37° C. As control groups, nano-Ca@ZOLE and HA, both in PBS, were employed. As a comparative method, the binding assay for ZOLE “as received” was performed employing the same parameters as for the nanocrystals. For the experimental groups (HA-nano-Ca@ZOLE and HA-ZOLE), collection was performed in duplicate. Samples were collected each day for 11 consecutive days. After each time point, supernatant was collected and centrifuged (1,500 rpm, 8 min). Absorbance measurements were performed at 208 nm (λmax) to determine the percentage of ZOLE and nano-Ca@ZOLE bound to HA. Solid samples of HA, HA-ZOLE, and HA-nano-Ca@ZOLE were characterized by EDS.
# The ability of nano-Ca@ZOLE to bind under simulated physiological conditions to the main constituent of the bone microenvironment, hydroxyapatite (HA), was probed through a binding assay. The binding to HA was determined by monitoring the decrease in the ZOLE concentration of the supernatant using absorption measurements (λmax=208 nm).
# [4] = Dissolution of ZOLE and ZOLE-Ca form II in FaSSGF; format: physicochemical
# Experimental: For ZOLE and ZOLE-Ca form II, dissolution measurements were performed in fasted-state simulated gastric fluid (FaSSGF). […] Absorbance measurements were performed on an Agilent Technologies Cary Series UV-Vis Spectrophotometer, Cary 100 UV-Vis model; using the UV Cary Scan software version v.20.0.470. All measurements were performed with a 400-200 nm scan.
# (§4) Dissolution assays employed a maximum concentration of 0.05 mg/mL of ZOLE, which corresponded to the clinically utilized dosage of these BP.
# To further investigate if the ZOLE-based BPCCs presented pH-dependent degradation, dissolution of ZOLE-Ca Form II in FaSSGF was performed.
# [5] = Dissolution of ZOLE and ZOLE-based BPCCs in PBS (UV-Vis 208 nm); format: physicochemical
# Experimental: Rate measurements were recorded for the reagent grade ZOLE, ZOLE-Ca forms I and II, ZOLE-Mg forms I and II, ZOLE-Zn forms I and II in PBS, against a reagent blank. […] Absorbance measurements were performed on an Agilent Technologies Cary Series UV-Vis Spectrophotometer, Cary 100 UV-Vis model; using the UV Cary Scan software version v.20.0.470. All measurements were performed with a 400-200 nm scan.
# Dissolution of ZOLE-based BPCCs was compared to that of ZOLE (active ingredient of Reclast@), to assess the structural stability of these materials in PBS and FaSSGF.
# as §4
compound,measurement,setting,value
"O=P(O)(O)C(O)(Cn1ccnc1)P(=O)(O)O [ZOLE, zoledronic acid]",% RCL / cell death,"[1]; 1.9-15 μM, 24, 48, 72 h",no significant cell death
same,IC50,[1]; 24 h,> 200 µM
same,IC50,[1]; 48 h,86 ± 3 µM
same,IC50,[1]; 72 h,49 ± 4 µM
same,% RCL (relative cell live),"[2]; 1.9 μM, time not stated",~100%
same,% RCL,"[2]; 3.8 μM, time not stated",~100%
same,% RCL,"[2]; 15 μM, 48 h",80±2%
same,% RCL,"[2]; 15 μM, 72 h",58±2%
same,IC50,[2]; 24 h,> 200 µM
same,IC50,[2]; 48 h,> 200 µM
same,IC50,[2]; 72 h,35 µM
same,time to reach maximum binding to HA,[3]; PBS pH 7.4,8 days
same,maximum binding to HA,"[3]; PBS pH 7.4, 37 °C, 0-11 days",82%
same,bound to HA,"[3]; PBS pH 7.4, 37 °C, 1 day (24 h)",15%
same,time to reach maximum dissolution,[4]; FaSSGF pH 1.6,3 h
same,dissolution / equilibrium solubility (maximum ZOLE released),"[4]; FaSSGF pH 1.6, 37 °C",100%
same,time to reach maximum dissolution,[5]; PBS pH 7.4,30 min
same,dissolution / equilibrium solubility (maximum ZOLE released),"[5]; PBS pH 7.4, 37 °C",100%
